According to patent publication US6638919B2, “Antiviral purine derivatives” (University College Cardiff Consultants Limited, priority 2001, dated 2003):
Structures can show the parent of a compound that is named as a salt. Where two headings read alike, the source gives them in different places.

What was measured:
HIV-1 = test: Inhibition of HIV-1 giant cell formation in CEM cells; type: cell-based
Description: (§1) Then 100 μL of the infected cell suspension was transferred to microtiter plate wells and mixed with 100 μL of the appropriate dilutions of the test compounds.
HIV 1 CEM: EC50 in μM for inhibition of HIV1 in CEM cells

HIV-2 [1] = test: Inhibition of HIV-2 giant cell formation in CEM cells; type: cell-based
Description: as §1
HIV1 CEM: EC50 in μM for inhibition of […] in CEM cells.
HIV2 CEM: EC50 in μM for inhibition of HIV-2 in CEM cells

[2] = Toxicity to mock-infected CEM cells (CC50); type: cell-based; details: human
Description: as §1
(§2) CC50 CEM: CC50 in μM for toxicity to CEM cells.
(§3) CC50 CEM: CC50 μM for toxicity to CEM cells

[3] = Acid stability, dilute HCl pH1, simulated stomach conditions; type: physicochemical; details: 0.1N HCl pH1, 25° C.
Description: Compounds were tested for their stability towards acid-mediated hydrolytic decomposition employing a test designed to simulate stomach conditions. Each compound was incubated in dilute HCl of pH1 for 24 hours at 25° C. 0.3 mg of compound were added to 1 mL of 0.1N HCl at 25° C. HPLC was run immediately for time=0 and at intervals up to approximately 24 hours.

[4] = Biological stability in heparinised human plasma; details: heparinised human plasma, 37° C.
Description: Each compound was incubated in normal heparinised human plasma at 37° C. for 4 hours. […] Drug concentrations were then determined by LC/MS/MS analysis using standard methods.

HIV-2 [5] = test: Inhibition of HIV-2 in CEM.TK- cells; type: cell-based; details: read-out: HIV2 CEM. TK.
Description: Cells were infected with HIV-1 as previously described [Balzarini et al. AIDS (1991), 5, 21-28]. Briefly, 5×10^5 cells per milliliter were infected with HIV-1 or HV-2 at 100 CClD50 (50% cell culture infective dose) per milliliter of cell suspension. Then 100 μL of the infected cell suspension was transferred to microtiter plate wells and mixed with 100 μL of the appropriate dilutions of the test compounds. After 4 days giant cell formation was recorded microscopically in the HIV-infected cell cultures [CEM].
HIV2CEM.TK- EC50 μM for inhibition of IV-2 in CEM=cells

CEM cells = test: Toxicity to mock-infected CEM cells (CC50); type: cell-based; details: Table III; toxicity to CEM cells; read-out: CC50 CEN
Description: as §1, §2, §3

MSV [6] = test: Minimum cytotoxic concentration in MSV assay; type: cell-based; design: unit not given here; details: Table III
Description: MCC MSV: minimum cytotoxic concentration in MSV essay.

MSV [7] = test: Inhibition of MSV; type: cell-based; details: read-out: EC50 MSV
Description: EC50 MSV: EC50 μM for inhibition of MSV

Solid type of salt forms = type: physicochemical
[8] = Solution stability of salt forms; type: physicochemical; details: % of parent (AUC) after 27 hr at room temperature
Description: (§4) The solubility and solution/solid state stability of three salt forms of (1S, 4R)-4-[2-amino-5(cyclopropylamino)-9(H)-purin-9-yl]-2-cyclopentene-1-methanol O-(phenyl ethoxy-L-alaninyl) phosphate

[9] = Solid state stability of salt forms; type: physicochemical; details: % of parent (AUC) after two weeks at 60° C.
Description: as §4

[10] = Human immunodeficiency virus 1, CCRF-CEM, 96 h, CEM cells, giant cell formation after 4 days, Tables I and II, read-out: EC50/μM HIV-1 CEM
[11] = Human immunodeficiency virus 2, CCRF-CEM, 96 h, CEM cells, giant cell formation after 4 days, Tables I and II, read-out: EC50/μM HIV-2 CEM
[12] = mock-infected CEM cells, Tables I and II, read-out: CC50/μM CEM
[13] = Table III, EC50 for inhibition of HIV-2 in CEM.TK- cells
[14] = Table III, EC50 for inhibition of HIV-2 in CEM cells, read-out: HIV2 CBM
[15] = Table III, EC50 for inhibition of HIV1 in CEM cells, read-out: HIV1 CBM
[16] = Human immunodeficiency virus 1, CCRF-CEM, Table III, EC50 for inhibition of HIV1 in CEM cells, read-out: HIV1 CBM
[17] = Human immunodeficiency virus 2, CEM-TK(-)
[18] = Human immunodeficiency virus 2, CCRF-CEM, Table III, EC50 for inhibition of HIV-2 in CEM cells, read-out: HIV2 CBM
[19] = Table III, toxicity to CEM cells, read-out: CC50 CEN

Compound | EC50 (HIV-2 [1]; [14]) | CC50 (CEM cells) | EC50 (HIV-1; [15]) | MCCMSV (MSV [6]) | EC50 (HIV-1; [16]) | EC50 (MSV [7]; Table III, inhibition of MSV) | EC50 (HIV-2 [1]; [18]) | CC50 [2, 19] | other results
Nc1nc2c(ncn2[C@H]2C=C[C@@H](CO)C2)c(=O)[nH]1 [(1R, 4S)-9-{4-(hydroxymethyl)-2-cyclopenten-1-yl]guanine, reference compound] | – | – | – | – | – | – | – | – | EC50 (HIV-1; [10]): 2 µM; EC50 (HIV-2 [1]; [11]): 2.3 µM; CC50 at 4 days [2, 12]: 157 µM
Nc1nc(NC2CC2)c2ncn([C@H]3C=C[C@@H](CO)C3)c2n1 [Abacavir, (1S,4R)-4-[2-anino-6-(cyclopropylamino)-9H-purin-9-yl]-2-cyclopentene-1-methanol, reference compound] | – | – | – | – | – | – | – | – | EC50 (HIV-1; [10]): 1.9 µM; EC50 (HIV-2 [1]; [11]): 3 µM; CC50 at 4 days [2, 12]: 78 µM
COC(=O)[C@H](C)NP(=O)(OC[C@@H]1C=C[C@H](n2cnc3c(N)ncnc32)O1)Oc1ccccc1 (stereo partly drawn) [Compound 1001, 2′, 3′-dideoxy-2′, 3′-didehydroadenosine-5′-(phenylmethoxyalaninyl) phosphate] | – | – | – | – | – | – | – | – | time to disappearance in acid [3]: < 1 min; Compound left (%) ([3]; time 0 hr): 0%; Compound left (%) ([3]; time 17 hr): 0%; Half-life [4]: 4.6 h; % Remaining at 4 hours ([4]; 4 hours): 52%
C[C@@H](NP(=O)(O)OC[C@@H]1C=C[C@H](n2cnc3c(NC4CC4)nc(N)nc32)C1)C(=O)O [Compound 1595, (1S,4R)-4-(2-amino-6-cyclopropylamino-9H-purin-9-yl)-2-cyclopentene-1-methanol O-(D-alaninyl)-phosphate diammonium salt] | 1.2 µM | 213 µM | – | – | – | – | – | – | EC50 (HIV-2 [5]; [13]): 0.8 µM
COC(=O)[C@H](C)NP(=O)(OC[C@@H]1C=C[C@H](n2cnc3c(NC4CC4)nc(N)nc32)C1)Oc1ccc(Cl)cc1 (stereo partly drawn) [Compound 1620, (1S,4R)-4-(2-amino-6-cyclopropylamino-9H-purin-^9-yl)-2-cyclopentene-1-methanol O-[4-chlorophenyl-(methoxy-L-alaninyl)]-phosphate] | 0.063 µM | 4.7 µM | 0.014 µM | – | – | – | – | – | EC50 (HIV-2 [5]; [13]): 0.013 µM
COC(=O)C(NP(=O)(OC[C@@H]1C=CC(n2cnc3c(NC4CC4)nc(N)nc32)C1)Oc1ccccc1)C(C)C (stereo partly drawn) [Compound 1666] | – | – | – | >20 | 3.5 µM | 11.8 µM | 4 µM | 54.1 µM | EC50 (HIV-2 [5]; [17]): 3.5 µM
CCC(CC)OC(=O)[C@H](C)NP(=O)(OC[C@@H]1C=CC(n2cnc3c(NC4CC4)nc(N)nc32)C1)Oc1ccccc1 (stereo partly drawn) [Compound 1685] | – | – | – | >20 | 1.6 µM | 10.1 µM | 2 µM | 19.7 µM | EC50 (HIV-2 [5]; [17]): 12.5 µM
C[C@H](NP(=O)(OC[C@@H]1C=CC(n2cnc3c(NC4CC4)nc(N)nc32)C1)Oc1ccccc1)C(=O)OCCC(C)(C)C (stereo partly drawn) [Compound 1687, (1S,4R)-4-(2-amino6cyclopropylamino-9H-purin-9-yl)-2-cyclopentene-1-methanol O-[phenyl(3,3-dimethyl-]-butoxy-L-alaninyl)phosphate] | – | – | – | >4 | 0.2 µM | 2.22 µM | 0.2 µM | 10.2 µM | EC50 (HIV-2 [5]; [17]): 0.14 µM
COC(=O)[C@H](CC1CCCCC1)NP(=O)(OC[C@@H]1C=C[C@H](n2cnc3c(NC4CC4)nc(N)nc32)C1)Oc1ccccc1 (stereo partly drawn) [Compound 1709, (1 S,4R)-4-(2-amino-6-cyclopropylamino-9H-purin-9-yl)-2-cyclopentene-1-methanol O-Phenyl-(methoxy-3-cyclohexane-L-alaninyl)-phosphate] | 2 µM | 16 µM | 1.2 µM | >4 | – | 1.72 µM | – | – | –
COC(=O)[C@H](C)NP(=O)(OC[C@@H]1C=C[C@H](n2cnc3c(NC4CC4)nc(N)nc32)C1)Oc1ccc(Br)cc1 (stereo partly drawn) [Compound 1710, (1S,4R)-4-(2-amino-6-cyclopropylamino-9H-purin-9-yl)-2-cyclopentene-1-methanol O-[4-bromophenyl-(methoxy-L-alaninyl)]-phosphate] | 0.049 µM | 5.78 µM | 0.0055 µM | >0.8 | – | 0.51 µM | – | – | –
CCOC(=O)C[C@H](NP(=O)(OC[C@@H]1C=C[C@H](n2cnc3c(NC4CC4)nc(N)nc32)C1)Oc1ccccc1)C(=O)OCC (stereo partly drawn) [Compound 1714, (1S,4R)-4-(2-amino-6-cyclopropylamino-9H-purin-9-yl)-2-cyclopeutene-1-methanol O-(phenyldiethoxy-L-aspartyl phosphate)] | 2.1 µM | 23.1 µM | 0.55 µM | >20 | – | 7.18 µM | – | – | –
COC(=O)[C@H](CCSC)NP(=O)(OC[C@@H]1C=C[C@H](n2cnc3c(NC4CC4)nc(N)nc32)C1)Oc1ccccc1 (stereo partly drawn) [Compound 1715, (1S,4R)-4-(2-amino-6-cyclopropylamino-9H-purin-9-yl)-2-cyclopentene-1-methanol O-(phenylmethoxy-L-methionyl phosphate)] | 2.73 µM | 48.9 µM | 1.15 µM | >20 | – | 10.2 µM | – | – | –
COC(=O)C(CC(C)C)NP(=O)(OC[C@@H]1C=CC(n2cnc3c(NC4CC4)nc(N)nc32)C1)Oc1ccccc1 (stereo partly drawn) [Compound 1718] | – | – | – | >20 | 0.85 µM | 8.84 µM | 1.48 µM | 22 µM | –
COC(=O)[C@@H]1CCCN1P(=O)(OC[C@@H]1C=CC(n2cnc3c(NC4CC4)nc(N)nc32)C1)Oc1ccccc1 (stereo partly drawn) [Compound 1719] | – | – | – | ≧100 | – | – | – | – | EC50 (HIV-1; Human immunodeficiency virus 1, CCRF-CEM, read-out: HIV1 CBM): 4 µM; EC50 (MSV [7]): 11.6 µM; EC50 (HIV-2 [1]; Human immunodeficiency virus 2, CCRF-CEM, read-out: HIV2 CBM): 5.5 µM; CC50 at 4 days [2, 19]: 19.4 µM
CC(C)CCCOC(=O)[C@H](C)NP(=O)(OC[C@@H]1C=CC(n2cnc3c(NC4CC4)nc(N)nc32)C1)Oc1ccccc1 (stereo partly drawn) [Compound 1721, (1S,4R)-4-(2-amino-6-cyclopropylamino-9H-purin-9-y))-2-cyclopentene-1-methanol O-[phenyl (4-methyl-1-pentyloxy-L-alaninyl)phosphate] | – | – | – | >4 | 0.05 µM | 2.2 µM | 0.14 µM | 12.5 µM | –
C[C@H](NP(=O)(OC[C@@H]1C=CC(n2cnc3c(NC4CC4)nc(N)nc32)C1)Oc1ccccc1)C(=O)OCC1CCCC1 (stereo partly drawn) [Compound 1722] | – | – | – | – | 0.13 µM | – | 0.48 µM | 15.2 µM | –
CCOC(=O)[C@H](C)NP(=O)(OC[C@@H]1C=C[C@H](n2cnc3c(NC4CC4)nc(N)nc32)C1)Oc1ccccc1.O=C(O)CCC(=O)O (stereo partly drawn) [Example 1, (1S,4R)-442-Amino-6-cyclopropylamino-9(purin-9-yl)-2-cyclopentene-1-methanol O-(phenylethoxy-L-alaninyl) phosphate Succinate Salt] | – | – | – | – | – | – | – | – | Solid Type (Solid type of salt forms): crystals; Stability (%) 0.1 N HCl ([8]; 0.1 N HCl): 66.0%; Stability (%) HPMC/Tween ([8]; HPMC/Tween): 98.8%; Stability (%) PBS ([8]; PBS): 99.8%; Solid State Stability (%) [9]: 99.6%
(1S,4R)-4-(2-amino6cyclopropyl-2 -amino-9H-purin-9-yl)-2-cyclopentene-1-methanol O-((P-(2 2-dimethoxy-L-propionic acid methyl ester)-phenyl)methoxyalaninyl phosphate) [Compound 1671] | 0.12 µM | 12.1 µM | 0.1 µM | >20 | – | 9.2 µM | – | – | –
